Cc1c(C(=O)O)cccc1[N+](=O)[O-]
solubility (mole fraction)
Conditions | in 1,4-dioxane | in 2-butanone | in acetone | in acetonitrile | in ethanol | in ethyl acetate | in isopropanol | in methanol | in n-propanol
283.15 K | – | 0.0528 | 0.0601 | 0.00849 | 0.0149 | 0.0312 | 0.0129 | 0.0162 | 0.0111
285.65 K | 0.0704 | 0.0544 | 0.0614 | 0.00919 | 0.0165 | 0.0325 | 0.0145 | 0.018 | 0.0127
288.15 K | 0.0718 | 0.056 | 0.0627 | 0.00993 | 0.0186 | 0.0341 | 0.0164 | 0.0202 | 0.0144
290.65 K | 0.0734 | 0.0576 | 0.0641 | 0.0107 | 0.0207 | 0.0357 | 0.0184 | 0.0225 | 0.0162
293.15 K | 0.0749 | 0.0592 | 0.0655 | 0.0117 | 0.0232 | 0.0373 | 0.0206 | 0.0255 | 0.0182
295.65 K | 0.0764 | 0.0609 | 0.0668 | 0.0127 | 0.0259 | 0.039 | 0.023 | 0.0286 | 0.0205
298.15 K | 0.0779 | 0.0626 | 0.0684 | 0.0138 | 0.0286 | 0.0406 | 0.0259 | 0.0319 | 0.0231
300.65 K | 0.0796 | 0.0645 | 0.0699 | 0.0149 | 0.0317 | 0.0423 | 0.0289 | 0.0354 | 0.0258
303.15 K | 0.0814 | 0.0664 | 0.0715 | 0.0161 | 0.0351 | 0.0442 | 0.0324 | 0.0392 | 0.0291
305.65 K | 0.0831 | 0.0683 | 0.0728 | 0.0172 | 0.0388 | 0.046 | 0.0362 | 0.0436 | 0.0326
308.15 K | 0.0847 | 0.0703 | 0.0745 | 0.0186 | 0.043 | 0.0478 | 0.0396 | 0.0483 | 0.0365
310.65 K | 0.0865 | 0.0722 | 0.0761 | 0.0199 | 0.0475 | 0.0499 | 0.0438 | 0.0529 | 0.0404
313.15 K | 0.0884 | 0.0741 | 0.0777 | 0.0211 | 0.0524 | 0.0518 | 0.0485 | 0.0579 | 0.0455
315.65 K | 0.0902 | 0.0764 | 0.0793 | 0.0226 | 0.0579 | 0.054 | 0.0533 | 0.0634 | 0.0506
318.15 K | 0.0921 | 0.0786 | 0.0808 | 0.0242 | 0.064 | 0.056 | 0.0587 | 0.0685 | 0.0556
